Experimental findings from DBAASP are described below.

≈ marks a conversion by molar mass, not a printed value.

Among the test systems are Escherichia coli D21; Bacillus megaterium Bm11; Escherichia coli 5509; Escherichia coli 09-240; Escherichia coli 09-280; Escherichia coli 170; Pseudomonas putida; Enterococcus sp. S13; Pseudomonas aeruginosa; Bacillus subtilis 168; Escherichia coli B; Staphylococcus aureus.
Test in all cases: ≥ marks a high value that may be exact or a test limit, other limits are often not marked, values filed in µg/mL are converted to µM
For assay [1], the system named is Shigella flexneri ATCC 203.
Assay [2] has as its system Staphylococcus aureus JC-1.
In assay [3] the test system is Bacillus subtilis ATCC 6633.
Assay [4] concerns Proteus vulgaris OX19 ATCC 6380.
For assay [5], the system named is Staphylococcus aureus Cowan 1.
The test system of assay [6] is Pseudomonas aeruginosa OT97.
Assay [7] deals with Acinetobacter baumannii 5821.
In assay [8] the test system is Enterobacter cloacae 14-262.
For assay [9], the system named is Klebsiella pneumoniae 01-239.
For assay [10], the system named is Staphylococcus aureus 01-001.
The test system of assay [11] is Pseudomonas aeruginosa 3599.
The subject of assay [12] is Staphylococcus aureus ATCC 29213.
The test system of assay [13] is Pseudomonas aeruginosa ATCC 9027.
In assay [14] the test system is Staphylococcus aureus 06-051.
In assay [15] the test system is Pseudomonas aeruginosa 5106.
Assay [16] deals with Klebsiella pneumoniae 01-252.
For assay [17], the system named is Escherichia coli ATCC 25922.
The test system of assay [18] is Enterobacter cloacae 06-267.
Assay [19] deals with Pseudomonas aeruginosa ATCC 27853.
For assay [20], the system named is Streptococcus agalactiae PTCC 1365.
Assay [21] deals with Klebsiella pneumoniae PTCC 1388.
The test system of assay [22] is Escherichia coli HP101BA 7601c.
Assay [23] relates to Staphylococcus aureus PTCC 1431.
In assay [24] the test system is Salmonella typhimurium PTCC 1428.
In assay [25] the test system is Streptococcus dysgalactiae PTCC 1074.
Assay [26] relates to Staphylococcus aureus 16472.
Assay [27] has as its system Salmonella enterica AB2010185.
Assay [28] relates to Enterobacter cloacae AB2010162.
Assay [29] concerns Bacillus magaterium AB90008.
Assay [30] relates to Staphylococcus aureus AB94004.
In assay [31] the test system is Micrococcus luteus AB2010179.
For assay [32], the system named is Klebsiella oxytoca AB2010143.
Assay [33] deals with Escherichia coli DH5alpha.
The test system of assay [34] is Candida tropicalis AY91009.
The subject of assay [35] is Micrococcus luteus CCM 144.
Assay [36] has as its system Candida albicans F7-39/IDE99.

Regarding `CC[C@H](C)[C@H](NC(=O)[C@H](CCCCN)NC(=O)[C@@H](NC(=O)[C@@H](NC(=O)[C@H](CCC(N)=O)NC(=O)CNC(=O)[C@H](Cc1cnc[nH]1)NC(=O)[C@H](CCC(N)=O)NC(=O)[C@@H](N)CC(N)=O)C(C)C)C(C)C)C(=O)N[C@@H](Cc1ccccc1)C(=O)N[C@@H](Cc1cnc[nH]1)C(=O)N[C@@H](Cc1cnc[nH]1)C(=O)O` [NQHGQVVKIFHH], the minimum inhibitory concentration (MIC) in assay [1] was no less than 6000 µM; in assay [2], no less than 1600 µM; in assay [3], no less than 3200 µM; against Escherichia coli D21, no less than 3200 µM; in [4], no less than 6000 µM; in assay [5] it was no less than 6000 µM. In addition, the figures for the minimum inhibitory concentration (MIC) (in assay [6]; against Bacillus megaterium Bm11) were no less than 6000 µM and no less than 800 µM, respectively.
On to `CC[C@H](C)[C@H](NC(=O)[C@H](C)NC(=O)[C@H](CC(N)=O)NC(=O)[C@H](CCCCN)NC(=O)[C@@H](NC(=O)CNC(=O)[C@H](CCC(=O)O)NC(=O)[C@H](Cc1c[nH]c2ccccc12)NC(=O)[C@H](CC(C)C)NC(=O)[C@H](CCCCN)NC(=O)CNC(=O)[C@H](Cc1c[nH]c2ccccc12)NC(=O)[C@@H](N)Cc1ccccc1)C(C)C)C(N)=O` [FWGKLWEGVKNAI], for which the minimum inhibitory concentration (MIC) in [7] was no less than 38 µM; in assay [8] it was no less than 50 µM; in assay [9], no less than 50 µM; in the assay on Escherichia coli 5509, no less than 32 µM; in assay [10] it was no less than 32 µM; in the assay with Escherichia coli 09-240 it was no less than 50 µM. The minimum inhibitory concentration (MIC) in [11] was no less than 32 µM; in assay [12], 32 µM (≈ 49.5 µg/mL); in assay [13], 40 µM (≈ 61.9 µg/mL); in assay [14], no less than 32 µM; in assay [15], no less than 32 µM; in assay [16], no less than 32 µM. In addition, the MIC in assay [17] was 25 µM (≈ 38.7 µg/mL); against Escherichia coli 09-280 it was no less than 32 µM; in the assay with Escherichia coli 170, no less than 32 µM; in assay [18], no less than 32 µM; in assay [19], greater than 32 µM.
As to `CC(C)C[C@H](NC(=O)[C@@H](NC(=O)CNC(=O)[C@H](C)NC(=O)[C@H](CC(C)C)NC(=O)[C@@H](NC(=O)[C@@H]1CCCN1C(=O)[C@H](CC(C)C)NC(=O)[C@@H](N)Cc1ccccc1)C(C)C)C(C)C)C(=O)N[C@@H](CO)C(=O)N[C@@H](CCCN=C(N)N)C(=O)N[C@@H](C)C(N)=O` [FLPVLAGVLSRA], the MIC is 24.5 µM (≈ 30.5 µg/mL) in assay [20]; 28.2 µM (≈ 35.1 µg/mL) in assay [21]; 27.8 µM (≈ 34.5 µg/mL) in [22]; no less than 33.9 µM in assay [23]; 25.6 µM (≈ 31.8 µg/mL) in assay [24]; 17.5 µM (≈ 21.8 µg/mL) in assay [25].
For `CC[C@H](C)[C@H](NC(=O)CN)C(=O)N[C@@H](CC(C)C)C(=O)NCC(=O)N[C@@H](CCCCN)C(=O)N[C@@H](CC(C)C)C(=O)N[C@@H](Cc1c[nH]c2ccccc12)C(=O)N[C@@H](CCC(=O)O)C(=O)NCC(=O)N[C@@H](Cc1ccccc1)C(=O)N[C@@H](CCCCN)C(=O)N[C@@H](CO)C(=O)N[C@H](C(=O)N[C@H](C(=O)O)C(C)C)[C@@H](C)CC` [GILGKLWEGFKSIV], the minimum inhibitory concentration (MIC) is 14 µM (≈ 21.7 µg/mL) in assay [26]; no less than 72 µM in assay [27]; no less than 76 µM in assay [28]; no less than 32 µM in [29]; 8 µM (≈ 12.4 µg/mL) in assay [30]; no less than 32 µM in assay [31]. Besides, the MIC against Pseudomonas putida is no less than 87 µM; in [32], no less than 87 µM; in assay [33] it was no less than 62 µM; in the assay with Enterococcus sp. S13, 28 µM (≈ 43.3 µg/mL); in assay [34] it was 16 µM (≈ 24.8 µg/mL).
Take `CC[C@H](C)[C@@H]1NC(=O)[C@H](CCCCN)NC(=O)[C@H](CCCCN)NC(=O)[C@@H]2CSSC[C@H](NC(=O)[C@H](C)NC(=O)[C@H](C(C)C)NC(=O)[C@@H](NC(=O)[C@@H](NC(=O)[C@@H](NC(=O)[C@H](CCCCN)NC(=O)[C@H](CCCCN)NC(=O)[C@@H](NC(=O)[C@H](CC(=O)O)NC(=O)[C@@H](N)CC(C)C)C(C)C)[C@@H](C)CC)[C@@H](C)CC)CSSC[C@@H](C(=O)N3CCC[C@H]3C(=O)N[C@@H](CCCCN)C(=O)O)NC1=O)C(=O)N[C@@H](CCCCN)C(=O)N[C@@H]([C@@H](C)CC)C(=O)N[C@@H](CCCCN)C(=O)N1CCC[C@H]1C(=O)N[C@@H](CC(N)=O)C(=O)N1CCC[C@H]1C(=O)N[C@@H](C)C(=O)N2` [LDVKKIICVACKIKPNPACKKICPK]: the MIC with Pseudomonas aeruginosa was greater than 100 µM; in assay [35] it was 1.6 µM (≈ 4.4 µg/mL); in the assay on Bacillus subtilis 168, 3.3 µM (≈ 9.08 µg/mL); in the assay on Escherichia coli B it was no less than 63.3 µM; with Staphylococcus aureus, greater than 100 µM; in assay [36], 24.2 µM (≈ 66.6 µg/mL).
